From patent US6066628A, “Non-iron metalloporphyrins and methods of use” (Emory University, priority 1998, dated 2000)

Assays:
Candida glabrata = experiment: MIC 80 microdilution, clinical yeast isolates; assay type: cell-based
Experimental: (§1) MICs of Ga-UPI against selected clinical yeast isolates. Growth was
(§2) scored after 24 and 48 hours of incubation.

Candida albicans = experiment: MIC 80 microdilution, clinical yeast isolates; assay type: cell-based
Experimental: as §1, §2

Cryptococcus neoformans = experiment: MIC 80 microdilution, clinical yeast isolates; assay type: cell-based
Experimental: as §1, §2

Candida tropicalis = experiment: MIC 80 microdilution, clinical yeast isolates; assay type: cell-based
Experimental: as §1, §2

Candida pillosus = experiment: MIC 80 microdilution, clinical yeast isolates; assay type: cell-based
yeasts = experiment: Yeast growth inhibition; assay type: cell-based
Y. enterocolitica = experiment: Minimal bactericidal concentration; assay type: cell-based; settings: reduces plating efficiency more than 99.9%; minimal exposure to light
bacteria = assay type: cell-based
M. smegmatis = experiment: Minimal bactericidal concentration; assay type: cell-based, Mycobacterium smegmatis; settings: reduces plating efficiency more than 99.9%; minimal exposure to light
Candida krusei = experiment: MIC 80 microdilution, clinical yeast isolates; assay type: cell-based
S. aureus = experiment: Minimal bactericidal concentration; assay type: cell-based, Staphylococcus aureus; settings: reduces plating efficiency more than 99.9%; minimal exposure to light
How it was run: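 Bacteria exposed to porphyrin derivatives above MIC as in the MIC assay, then plated on LB or LB+Tween 80 agar. MBC taken as the concentration reducing plating efficiency by more than 99.9%; light exposure kept minimal.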

O=C(O)CCC1=C(CC(=O)O)C2=NC1=Cc1c(CC(=O)O)c(CCC(=O)O)c3[n]1[Ga]([Cl])[n]1c(c(CCC(=O)O)c(CC(=O)O)c1=CC1=NC(=C3)C(CC(=O)O)=C1CCC(=O)O)=C2 [Ga-UPI, Ga-uroporphyrin I]
MIC 80 (Candida glabrata; 97-049, 24 hours): 8 µg/mL
MIC 80 (Candida glabrata; 97-049, 48 hours): 32 µg/mL
MIC 80 (Candida glabrata; 97-050, 24 hours): 8 µg/mL
MIC 80 (Candida glabrata; 97-050, 48 hours): 16 µg/mL
MIC 80 (Candida glabrata; 97-051, 24 hours): 8 µg/mL
MIC 80 (Candida glabrata; 97-051, 48 hours): 32 µg/mL
MIC 80 (Candida glabrata; 97-052, 24 hours): 8 µg/mL
MIC 80 (Candida glabrata; 97-052, 48 hours): 32 µg/mL
MIC 80 (Candida glabrata; 97-053, 24 hours): 8 µg/mL
MIC 80 (Candida glabrata; 97-053, 48 hours): 16 µg/mL
MIC 80 (Candida albicans; 97-010, 24 hours): 2 µg/mL
MIC 80 (Candida albicans; 97-010, 48 hours): 8 µg/mL
MIC 80 (Candida albicans; 97-012, 24 hours): 2 µg/mL
MIC 80 (Candida albicans; 97-012, 48 hours): 8 µg/mL
MIC 80 (Candida albicans; 97-014, 24 hours): 2 µg/mL
MIC 80 (Candida albicans; 97-014, 48 hours): 8 µg/mL
MIC 80 (Candida albicans; 97-015, 24 hours): 2 µg/mL
MIC 80 (Candida albicans; 97-015, 48 hours): 8 µg/mL
MIC 80 (Candida albicans; 97-031, 24 hours): 2 µg/mL
MIC 80 (Candida albicans; 97-031, 48 hours): 16 µg/mL
MIC 80 (Cryptococcus neoformans; 97-044, 24 hours): 16 µg/mL
MIC 80 (Cryptococcus neoformans; 97-044, 48 hours): 16 µg/mL
MIC 80 (Cryptococcus neoformans; 97-045, 24 hours): 16 µg/mL
MIC 80 (Cryptococcus neoformans; 97-045, 48 hours): 32 µg/mL
MIC 80 (Cryptococcus neoformans; 97-046, 24 hours): 16 µg/mL
MIC 80 (Cryptococcus neoformans; 97-046, 48 hours): 16 µg/mL
MIC 80 (Cryptococcus neoformans; 97-047, 24 hours): 8 µg/mL
MIC 80 (Cryptococcus neoformans; 97-047, 48 hours): 16 µg/mL
MIC 80 (Cryptococcus neoformans; 97-048, 24 hours): 16 µg/mL
MIC 80 (Cryptococcus neoformans; 97-048, 48 hours): 16 µg/mL
MIC 80 (Candida tropicalis; 97-054, 24 hours): 16 µg/mL
MIC 80 (Candida tropicalis; 97-054, 48 hours): 32 µg/mL
MIC 80 (Candida tropicalis; 97-055, 24 hours): 8 µg/mL
MIC 80 (Candida tropicalis; 97-055, 48 hours): 16 µg/mL
MIC 80 (Candida pillosus; 97-056, 24 hours): 1 µg/mL
MIC 80 (Candida pillosus; 97-056, 48 hours): 2 µg/mL
MIC 80 (Candida pillosus; 97-057, 24 hours): 2 µg/mL
MIC 80 (Candida pillosus; 97-057, 48 hours): 8 µg/mL
inhibition of growth of yeast (yeasts): able to inhibit growth of yeast
Minimal bactericidal concentration (MBC) (Y. enterocolitica): 10
antibacterial activity (bacteria): seriously limited in their antibacterial activities
Minimal bactericidal concentration (MBC) (M. smegmatis): 10
MIC 80 (Candida krusei; 97-058, 24 hours): 1 µg/mL
MIC 80 (Candida krusei; 97-058, 48 hours): 4 µg/mL
MIC 80 (Candida krusei; 97-059, 24 hours): 2 µg/mL
MIC 80 (Candida krusei; 97-059, 48 hours): 8 µg/mL
MIC 80 (Candida krusei; ATCC-6258, 24 hours): 1 µg/mL
MIC 80 (Candida krusei; ATCC-6258, 48 hours): 2 µg/mL
Minimal bactericidal concentration (MBC) (S. aureus): 10
